Legend:
[1] = tested on: inward rectifier potassium (IK1) current; experiment: Whole-cell patch-clamp, steady state current-voltage relation in dog ventricular myocytes; type: cell-based; settings: 10 µM, dog left ventricular myocytes
From the text: (§1) The effects of SZV-2649 on transmemrane ionic currents were investigated in dog cardiac myocytes after a 5-minute superfusion of the drug.
Figure 4D represents the steady state current-voltage relation after 300 ms pulses from − 100 mV to 60 mV using 10 mV increments applying 3-second pulsing cycle length from the holding potential of -90 mV.
(§2) Ventricular myocytes from Beagle dogs were enzymatically dissociated as described in detail previously. A single droplet of cell suspension was placed in a transparent recording chamber mounted on the stage of an inverted microscope (Olympus IX51, Olympus, Tokyo, Japan), and individual myocytes were allowed to settle and adhere to the chamber bottom for at least 5–10 min before superfusion was initiated and maintained by gravity. Only rod-shaped cells with clear striations were used. […]
(§3) The membrane currents were recorded with Axopatch-200B amplifiers (Molecular Devices, Sunnyvale, CA, USA) by means of the whole-cell configuration of the patch-clamp technique. […]
The inward rectifier (IK1), the transient outward (Ito), the rapid (IKr) and the slow (IKs) delayed rectifier potassium currents were recorded in HEPES-buffered Tyrode’s solution. […] When IKr was recorded, IKs was inhibited by using the selective IKs blocker HMR-1556 (0.5 µM). […]

[2] = tested on: IKACh in dog atrial trabecular muscle preparations; experiment: Action potential duration in carbachol-pretreated dog atrial trabecular muscle; settings: 10 µM, after 1 µM carbachol for 10 min
Method: The possible effect of SZV-2649 on IKACh was investigated in dog atrial trabecular muscle preparations. Carbachol (1 µM) was added to the tissue bath for 10 min to activate IKACh. […] Application of 10 µM SZV-2649 prolonged APD substantially to a greater degree (100%) than could be expected by its effect on repolarization in the absence of carbachol (10%) as shown in Table 1; Fig. 5D.
Action potentials were recorded in cardiac ventricular trabeculae and papillary muscle preparations obtained from the right ventricles of Beagle dogs (10–15 kg) of either sex using the conventional microelectrode technique. Dogs were sacrificed by iv. sedation with xylazine (1 mg/kg), followed by i.v. administration of 50 mg/kg pentobarbital. After the cornea reflex disapeared the chest was opened, and the heart was rapidly removed. […]
Isolated papillary muscle or atrial trabecula and Purkinje fiber preparations were obtained and prepared from the right ventricle and were individually mounted in a tissue chamber with the volume of 50 ml. […] Transmembrane potentials were recorded using conventional glass microelectrodes, filled with 3 M KCl and having tip resistances of 5–20 MΩ, connected to the input of a high impedance electrometer (Experimetria, type 309, Budapest, Hungary) which was coupled to a dual beam oscilloscope. […]

[3] = tested on: dog right ventricular muscle preparations; experiment: Conventional microelectrode action potential recording, dog ventricular muscle; settings: for APA / APD50 / APD90 / RP / Vmax: ventricular muscle, CL = 1000 ms, n = 8
Method: The effects of SZV-2649 on action potentials were studied in dog ventricular, atrial and Purkinje fiber preparations.
The Class I antiarrhythmic property of SZV-2649 was further studied with different frequency-dependent protocols. […]. Action potentials were recorded in cardiac ventricular trabeculae and papillary muscle preparations obtained from the right ventricles of Beagle dogs (10–15 kg) of either sex using the conventional microelectrode technique. Dogs were sacrificed by iv. sedation with xylazine (1 mg/kg), followed by i.v. administration of 50 mg/kg pentobarbital. After the cornea reflex disapeared the chest was opened, and the heart was rapidly removed. The heart was immediately rinsed in oxygenated modified Locke’s solution containing (in mM): NaCl 128.3, KCl 4, CaCl2 1.8, MgCl2 0.42, NaHCO3 21.4, and glucose 10. The pH of this solution was set between 7.35 and 7.4 when gassed with the mixture of 95% O2 and 5% CO2 at 37 °C.
Isolated papillary muscle or atrial trabecula and Purkinje fiber preparations were obtained and prepared from the right ventricle and were individually mounted in a tissue chamber with the volume of 50 ml. Each preparation was initially stimulated through a pair of platinum electrodes in contact with the preparation using rectangular current pulses of 2 ms duration. These stimuli were delivered at a constant cycle length of 1000 ms for at least 60 min allowing the preparation to equilibrate before the measurements were initiated. Transmembrane potentials were recorded using conventional glass microelectrodes, filled with 3 M KCl and having tip resistances of 5–20 MΩ, connected to the input of a high impedance electrometer (Experimetria, type 309, Budapest, Hungary) which was coupled to a dual beam oscilloscope. […] Stimulation with a constant cycle length of 1000 ms was applied in the course of all experiments. Attempts were made to maintain the same impalement throughout each experiment. In case an impalement became dislodged, adjustment was attempted, and if the action potential characteristics of the re-established impalement deviated by less than 5% from the previous measurement, the experiment continued[64]–[67]. All measurements were carried out at 37 °C.

[4] = tested on: L-type inward calcium current (ICaL); experiment: Whole-cell patch-clamp, L-type calcium current in dog ventricular myocytes; type: cell-based; settings: 10 µM, dog left ventricular myocytes
Method: as §1
The L-type inward calcium current (ICaL) was measured from a holding potential of -80 mV with a 40 ms prepulse to -40 mV to inactivate INa (see inset of Fig. 3B). Test pulses of 400 ms duration from − 35 mV to 55 mV were applied with a pulsing cycle length of 3 s. In the internal (pipette) solution, KCl was replaced by 125 mM CsCl to block potassium currents.
as §2, §3
The L-type calcium current (ICaL) was recorded in HEPES-buffered Tyrode’s solution supplemented with 3 mM 4-aminopyridine. […]

In the case of CC(N)COc1c(I)cc(C#N)cc1I.Cl (stereo not drawn) [SZV-2649, 4-(2-aminopropoxy)-3,5-diiodobenzonitrile hydrochloride], the “Effect on inward rectifier potassium (IK1) current, steady state current-voltage relation” value [1] is reported as “no discernible effects”, the “Prolongation of APD in the presence of carbachol” value [2] is reported as 100% and the APA ([3]; 5 µM) is reported as 118.3 ± 1.9 mV. For the same molecule, the APD50 ([3]; 5 µM) was 212.2 ± 5.7 ms, the APD90 ([3]; 5 µM) was 251.6 ± 4.0 ms and the RP ([3]; 5 µM) was −84.5 ± 2.0 mV. The Vmax ([3]; 5 µM) was 227.4 ± 24.2 V/s, the “Recovery time constant of Vmax (offset kinetics of Vmax block, τoffset)” value ([3]; 10 µM, dog ventricular muscle, premature stimulation from 1 Hz basic frequency) was 590 ms and the APA ([3]; 10 µM) was 117.1 ± 2.1 mV. For the same molecule, the APD50 ([3]; 10 µM) was 213.4 ± 5.8 ms, the APD90 ([3]; 10 µM) was 252.8 ± 5.0 ms and the RP ([3]; 10 µM) was −86.1 ± 2.0 mV. For the same molecule, the Vmax ([3]; 10 µM) was 203.2 ± 24.3 V/s, the Vmax ([3]; […]) was 228.3 ± 23.5 V/s and the “Effect on magnitude of ICaL” value [4] was “moderately but significantly decreased”.
